Reference: PubChem BioAssay AID330 (DTP/NCI, 2004)
Several values for one entry are separate records, joined by “and”; a condition that tells them apart may be missing. Identical values can stand only once. Toxic doses and inconclusive results are not listed. The calls were made as follows: active = survival T/C of 150% or more; inactive = T/C below 125% in these data.

Tested on: P388 leukemia ip, CD2F1 mice, survival T/C
Test: NCI In Vivo Anticancer Drug Screen. Data for tumor model P388 Leukemia (intraperitoneal) in CD2F1 (CDF1) mice
Details: endpoint: median survival time, higher = longer survival
Method in brief: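 Mice carrying the transplanted tumor received test compound or vehicle. Survival was recorded in each group, and the value is the treated-group measurement divided by that of the vehicle-treated control group.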

[1] = dose: 50.0 mg/kg/injection, schedule: Q01DX005 (ip), vehicle: saline with Tween-80
[2] = dose: 100.0 mg/kg/injection, schedule: Q01DX005 (ip), vehicle: saline with Tween-80
[3] = dose: 200.0 mg/kg/injection, schedule: Q01DX005 (ip), vehicle: saline with Tween-80
[4] = dose: 12.5 mg/kg/injection, schedule: Q01DX009 (ip), vehicle: saline with Tween-80
[5] = dose: 25.0 mg/kg/injection, schedule: Q01DX009 (ip), vehicle: saline with Tween-80
[6] = dose: 50.0 mg/kg/injection, schedule: Q01DX005 (ip), vehicle: Klucel (hydroxypropylcellulose) (HPC)
[7] = dose: 100.0 mg/kg/injection, schedule: Q01DX005 (ip), vehicle: Klucel (hydroxypropylcellulose) (HPC)
[8] = dose: 200.0 mg/kg/injection, schedule: Q01DX005 (ip), vehicle: Klucel (hydroxypropylcellulose) (HPC)

Measured: T/C

CC(=O)NC1CCCCC1[Se](=O)c1ccccc1 (stereo not drawn)
inactive: [1] 108 % of control | [2] 100 % of control | [3] 109 % of control

COC(=O)C1=C(C(=O)OC)C2CCCOC2=C(C)C1 (stereo not drawn)
inactive: [1] 96 % of control | [2] 95 % of control | [3] 93 % of control

N#CC1(Nc2ccccc2)CCCCC1
inactive: dose: 6.25 mg/kg/injection, schedule: Q01DX009 (ip), vehicle: saline with Tween-80 90 % of control | [4] 95 % of control | [5] 90 % of control

CCCN1CN2CCOC2C(C)(C)C1 (stereo not drawn)
inactive: dose: 40.0 mg/kg/injection, schedule: Q01DX009 (ip), vehicle: saline with Tween-80 112 % of control | dose: 80.0 mg/kg/injection, schedule: Q01DX009 (ip), vehicle: saline with Tween-80 114 % of control

CC1CC[N-]C(C)C1.CN(C)C=O.[Cl][Pt][Cl] (stereo not drawn)
inactive: dose: 1.56 mg/kg/injection, schedule: Q01DX009 (ip), vehicle: saline with Tween-80 114 % of control | dose: 3.13 mg/kg/injection, schedule: Q01DX009 (ip), vehicle: saline with Tween-80 124 % of control

CC(C)=CC(=O)OC(=O)C=C(C)C
inactive: dose: 100.0 mg/kg/injection, schedule: Q04DX003 (ip), vehicle: other 100 % of control | dose: 200.0 mg/kg/injection, schedule: Q04DX003 (ip), vehicle: other 100 % of control | dose: 400.0 mg/kg/injection, schedule: Q04DX003 (ip), vehicle: other 100 % of control

Cc1ccc(Br)cc1CCO
inactive: [6] 98 % of control and 97 % of control | [7] 99 % of control and 100 % of control | [8] 100 % of control and 120 % of control

Nc1ccc(C2NC(=O)Cc3ccccc32)cc1 (stereo not drawn)
inactive: dose: 50.0 mg/kg/injection, schedule: Q01DX009 (ip), vehicle: saline 92 % of control | dose: 100.0 mg/kg/injection, schedule: Q01DX009 (ip), vehicle: saline 90 % of control | dose: 200.0 mg/kg/injection, schedule: Q01DX009 (ip), vehicle: saline 86 % of control

O=c1[nH]c(=S)[nH]cc1-c1ccc(Cl)c(Cl)c1
inactive: dose: 50.0 mg/kg/injection, schedule: Q01DX009 (ip), vehicle: suspension in saline 105 % of control | dose: 100.0 mg/kg/injection, schedule: Q01DX009 (ip), vehicle: suspension in saline 104 % of control | dose: 200.0 mg/kg/injection, schedule: Q01DX009 (ip), vehicle: suspension in saline 106 % of control

C[CH2][Sn]1([CH2]C)[O]C(=O)[O][Sn]([CH2]C)([CH2]C)[O]1
inactive: dose: 3.12 mg/kg/injection, schedule: Q01DX005 (ip), vehicle: Klucel (hydroxypropylcellulose) (HPC) 122 % of control | dose: 6.25 mg/kg/injection, schedule: Q01DX005 (ip), vehicle: Klucel (hydroxypropylcellulose) (HPC) 119 % of control

CCCCCCCCCCCCCCCCC(C(=O)O)C(O)(CC(=O)O)C(=O)O (stereo not drawn)
inactive: dose: 8.75 mg/kg/injection, schedule: Q01DX009 (ip), vehicle: Klucel (hydroxypropylcellulose) (HPC) 95 % of control | [4] 91 % of control | dose: 17.5 mg/kg/injection, schedule: Q01DX009 (ip), vehicle: Klucel (hydroxypropylcellulose) (HPC) 101 % of control | [5] 94 % of control | dose: 35.0 mg/kg/injection, schedule: Q01DX009 (ip), vehicle: Klucel (hydroxypropylcellulose) (HPC) 95 % of control | dose: 70.0 mg/kg/injection, schedule: Q01DX009 (ip), vehicle: Klucel (hydroxypropylcellulose) (HPC) 87 % of control | dose: 100.0 mg/kg/injection, schedule: Q01DX009 (ip), vehicle: saline with Tween-80 90 % of control

Cc1ccc(C(=O)C(C#N)=Nc2ccc(N(C)C)cc2)cc1
inactive: dose: 12.5 mg/kg/injection, schedule: Q01DX005 (ip), vehicle: Klucel (hydroxypropylcellulose) (HPC) 92 % of control | [6] 87 % of control and 91 % of control | [7] 92 % of control | [8] 99 % of control

CSc1nc(N)n2nc(C3CC3)cc2n1
inactive: dose: 60.0 mg/kg/injection, schedule: Q01DX005 (ip), vehicle: saline with Tween-80 102 % of control | dose: 120.0 mg/kg/injection, schedule: Q01DX005 (ip), vehicle: saline with Tween-80 100 % of control | dose: 240.0 mg/kg/injection, schedule: Q01DX005 (ip), vehicle: saline with Tween-80 100 % of control

CC1(C)OI(O)c2ccccc21
inactive: dose: 100.0 mg/kg/injection, schedule: Q04DX002 (ip), vehicle: Klucel (hydroxypropylcellulose) (HPC) 100 % of control | dose: 200.0 mg/kg/injection, schedule: Q04DX002 (ip), vehicle: Klucel (hydroxypropylcellulose) (HPC) 100 % of control
